The source of these data is patent US4943587A, “Hydroxamate derivatives of selected nonsteroidal antiinflammatory acyl residues and their use for cyclooxygenase and 5-lipoxygenase inhibition” (Warner-Lambert Company, priority 1988, dated 1990).

A value given as a limit tells only on which side of the number the result lay.

Data set [1] has as its system Carrageenan-induced rat foot paw edema. As to the kind of experiment: Carrageenan-induced rat foot paw edema (CFE-2) assay. It is filed as in vivo. The conditions noted are these: read-out: CFE % Inhibition @ Dose; for inhibition in vivo at 10 mg/kg: 10 mg/kg PO; for inhibition in vivo at 10 mg/kg / inhibition in vivo at 30 mg/kg: 1 h before carrageenan, edema at 5 h; for inhibition in vivo at 30 mg/kg: 30 mg/kg PO. Here is the method:
Carrageenan-Induced Rat Foot Paw Edema-2 (CFE-2) Assay: Protocol
Carrageenan solution (1% w/v) is prepared by dissolving 100 mg carrageenan (Marine Colloidal Div., Springfield, N.J.) in 10 ml of sterile saline (0.9%) solution (Travenol). The solution is vortexed for thirty to forty-five minutes. Animals are dosed with compound one hour before carrageenan challenge. Foot paw edema is induced by injecting 0.05 ml of the 1% carrageenan subcutaneously into the plantar portion of the right hind paw of each rat under light anesthesia. Initial foot paw volume is measured immediately following carrageenan challenge using mercury plethysmography (Buxco Electronics). Edema is measured five hours after carrageenan. The difference between the five-hour and the initial paw volume is expressed as delta edema. The delta edema for each test group of animals is used to calculate the percent inhibition of edema achieved by the compound at the test dose compared with the vehicle control group. The ID25 (the dose at which swelling is inhibited by 25%) was calculated by probit analysis for the dose at which a result of 25 percent inhibition occurs.

For data set [2], the system named is Mycobacterium-induced rat footpad edema. Nature of the data set: Mycobacterium-induced rat footpad edema (MFE) assay. The data set is classed as in vivo. The conditions noted are these: swelling at 72 h; for ED40: Rattus norvegicus, po, probit analysis, read-out: MFE ID40 (dose at which swelling is inhibited by 40%). Here is the method:
Mycobacterium - Induced Rat Footpad Edema Assay (MFE): Protocol
Myobacterium butyricum (5 mg/ml) is suspended in paraffin oil by sonication for ten minutes in an ice bath. Footpad edema is induced on Day 0 by injecting 0.1 ml of the Mycobacterium mixture into the left hindpaw of lightly anesthetized rats. Swelling in the injected hindpaw is determined by mercury plethysmography seventy-two hours after injection. Groups of rats are treated with test compounds (suspended in 0.5% hydroxypropyl methylcellulose with 0.2% Tween-80) or vehicle one hour before Myobacterium injection and on Days 1 and 2. Inhibition of swelling is determined by comparing the change in hindpaw volume in compound- and vehicle-treated rats. An ID40 (the dose at which swelling is inhibited by 40%) was calculated by probit analysis.

A further data set has as its target T1, 5-Lipoxygenase (Rattus norvegicus, UniProt P12527).
T1 construct: host or cells: RBL-1 (rat basophilic leukemia)
T1 sequence (P12527 1-673): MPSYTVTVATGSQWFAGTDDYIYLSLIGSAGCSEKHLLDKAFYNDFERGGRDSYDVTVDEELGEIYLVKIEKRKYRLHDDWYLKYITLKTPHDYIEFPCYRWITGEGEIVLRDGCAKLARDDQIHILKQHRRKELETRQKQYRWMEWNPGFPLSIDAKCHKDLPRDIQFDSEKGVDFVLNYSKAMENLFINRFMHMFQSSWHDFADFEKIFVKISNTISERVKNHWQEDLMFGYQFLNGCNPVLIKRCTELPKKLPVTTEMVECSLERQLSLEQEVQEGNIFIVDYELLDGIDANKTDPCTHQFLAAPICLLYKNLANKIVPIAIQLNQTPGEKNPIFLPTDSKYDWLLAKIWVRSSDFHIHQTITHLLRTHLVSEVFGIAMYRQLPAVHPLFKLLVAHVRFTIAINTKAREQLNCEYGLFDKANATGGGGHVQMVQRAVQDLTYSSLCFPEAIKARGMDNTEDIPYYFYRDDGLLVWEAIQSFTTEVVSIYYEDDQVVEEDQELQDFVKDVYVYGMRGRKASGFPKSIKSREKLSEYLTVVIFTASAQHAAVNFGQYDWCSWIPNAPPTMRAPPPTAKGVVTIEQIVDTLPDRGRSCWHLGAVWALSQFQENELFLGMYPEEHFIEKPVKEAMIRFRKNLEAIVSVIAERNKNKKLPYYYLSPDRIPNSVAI
Nature of the data set: ARBL: RBL-1 whole cell 5-lipoxygenase assay (inhibition of LTB4 formation). The data set is classed as cell-based. To be noted: RBL-1 cells, A23187 5 μM. Here is the method:
(§1) ARBL/ARBC Whole Cell 5-Lipoxygenase and Cyclooxygenase Assays
(§2) The rat basophilic leukemia cell line (RBL-1) was obtained from the American Type Culture Collection (Rockville, Md.).
(§3) Radioimmuno assay (RIA) kits of LTB4 and PGF2α were obtained from Amersham (Arlington Heights, Ill.) and Seragen (Boston, Mass.) respectively.
RBL-1 cells are grown in suspension culture in Eagle's minimum essential medium supplemented with 12% fetal bovine serum at 37° C. in an incubator supplied with air-5% carbon dioxide. Cells are harvested by centrifugation. They are washed with cold phosphate buffered saline pH 7.4 (PBS; NaCl, 7.1 g; Na2 PO4, 1.15 g; KH2 PO4, 0.2 g; and KCl, 0.2 g/l). Cells are finally suspended in PBS containing 1.0 mM calcium at a density of 2×10^6 cells/ml. Cells are incubated with and without test agent (in DMSO) (1% DMSO is without effect on arachidonic acid metabolism) for ten minutes at room temperature. Calcium ionophore A23187 (5 μM) is added and cells are incubated for seven minutes at 37° C. The reaction is stopped by chilling the tubes on ice for ten minutes. Cells are separated by centrifugation and the supernatant is stored at -20°. Aliquots (100 μl) are analyzed for LTB4 and PGF2α using radioimmuno assay kits as provided by the supplier.

Data set [3] has as its target T2, Cyclooxygenase (Rattus norvegicus, UniProt Q63921).
T2 construct: host or cells: RBL-1 (rat basophilic leukemia)
T2 sequence (Q63921 27-602): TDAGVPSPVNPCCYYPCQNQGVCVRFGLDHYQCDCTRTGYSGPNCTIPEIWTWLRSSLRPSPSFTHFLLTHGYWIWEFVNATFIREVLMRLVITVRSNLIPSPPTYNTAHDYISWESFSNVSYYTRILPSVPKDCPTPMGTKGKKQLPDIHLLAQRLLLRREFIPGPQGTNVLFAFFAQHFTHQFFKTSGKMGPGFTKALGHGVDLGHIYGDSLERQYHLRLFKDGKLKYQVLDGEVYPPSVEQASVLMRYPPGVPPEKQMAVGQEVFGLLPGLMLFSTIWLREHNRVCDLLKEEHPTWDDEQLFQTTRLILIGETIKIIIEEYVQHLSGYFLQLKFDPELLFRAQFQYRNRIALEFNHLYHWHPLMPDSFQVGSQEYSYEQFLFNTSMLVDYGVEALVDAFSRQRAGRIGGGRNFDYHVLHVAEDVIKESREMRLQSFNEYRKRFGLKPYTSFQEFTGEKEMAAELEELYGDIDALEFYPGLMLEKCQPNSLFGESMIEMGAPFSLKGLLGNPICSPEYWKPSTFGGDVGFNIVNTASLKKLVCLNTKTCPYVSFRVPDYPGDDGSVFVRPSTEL
Nature of the data set: ARBC: RBL-1 whole cell cyclooxygenase assay (inhibition of PGF2α formation). It is filed as cell-based. The conditions noted are these: RBL-1 cells, A23187 5 μM; for % inhibition ARBC (RBL whole cell cyclooxygenase, PGF2α inhibition): @ 32 (μM); for IC50: PGF2α formation.
Source text: as §1, §2, §3
(§4) Cells are harvested by centrifugation. They are washed with cold phosphate buffered saline pH 7.4 (PBS; NaCl, 7.1 g; Na2 PO4, 1.15 g; KH2 PO4, 0.2 g; and KCl, 0.2 g/l). […] Calcium ionophore A23187 (5 μM) is added and cells are incubated for seven minutes at 37° C. The reaction is stopped by chilling the tubes on ice for ten minutes. Cells are separated by centrifugation and the supernatant is stored at -20°. Aliquots (100 μl) are analyzed for LTB4 and PGF2α using radioimmuno assay kits as provided by the supplier.

The nature of data set [4]: Gastric ulcerogenicity (UD). The conditions noted are these: rat, in vivo, po. The data set is classed as in vivo, Male outbred Wistar rats. The method, then: (§5) Gastric Ulcerogenicity (UD) Protocol
(§6) Male outbred Wistar rats (100-250 gms) were fasted for twenty-four hours. After fasting, test compounds were administered orally (in 2 ml/Kg of 0.5% hydroxypropyl methylcellulose) and the rats were denied access to food and water for six more hours. The rats were then sacrificed with CO2 so that the stomachs could be removed, opened along the greater curvature, and evaluated for the presence of gastric ulcers. Results are expressed as the percent of rats with gastric ulcers at a given dose.

The test system of data set [5] is Cyclooxygenase. As to the kind of experiment: ARBC: RBL-1 whole cell cyclooxygenase assay (inhibition of PGF2α formation). It is filed as cell-based, rat. To be noted: ARBL/ARBC IC50; >1.0 cyclooxygenase selective, <1.0 5-lipoxygenase selective.
Source text: as §1, §2, §3, §4

The test system of another data set is gastric ulcers in rats. As to the kind of experiment: Gastric ulcerogenicity (UD). The data set is classed as in vivo, Male outbred Wistar rats. The conditions noted are these: 100 mg/kg PO, fasted rats, 6 h. The method, then:
as §5, §6

Consider `COc1ccc2c(c1)c(CC(=O)N(O)C(C)C)c(C)n2C(=O)c1ccc(Cl)cc1` [Example 5, 1-(4-Chlorobenzoyl)-N-hydroxy-5-methoxy-2-methyl-N-(1-methylethyl)-1H-indole-3-acetamide], for which the inhibition in vivo at 10 mg/kg in data set [1] came to 27%. The ED40 in data set [2] was 0.82 mg/kg. On 5-Lipoxygenase, the IC50 (commonly the concentration that gives 50% inhibition) turned out to be 900 nM.

Take `CONC(=O)CC1=C(C)/C(=C/c2ccc([S+](C)[O-])cc2)c2ccc(F)cc21` (stereo not drawn) [Example 2, (Z)-6-fluoro-N-methoxy-2-methyl-3-[[4-(methylsulfinyl)phenyl]methylene]-3H-indene-1-acetamide]: the “% inhibition ARBC (RBL whole cell cyclooxygenase, PGF2α inhibition)” value (“% inhibition ARBC” for short) at Cyclooxygenase [3] was determined as 0%. The molecule also yielded a 50% inhibitory concentration (IC50) against 5-Lipoxygenase of 26400 nM.

Consider `COc1ccc2c(c1)c(CC(=O)NO)c(C)n2C(=O)c1ccc(Cl)cc1` [Oxametacin, reference compound], for which, in data set [1], the inhibition in vivo at 30 mg/kg was found to be 46%. The molecule further registered a TD50 at 6 h in data set [4] of 103 mg/kg. For the same molecule, at 5-Lipoxygenase, half-maximal inhibition (IC50) was put at 7500 nM.

As for `CC1=C(CC(=O)NO)c2cc(F)ccc2/C1=C\c1ccc([S+](C)[O-])cc1` (stereo not drawn) [Example 2A, (Z)-6-fluoro-N-hydroxy-2-methyl-3-[[4-(methylsulfinyl)phenYl]methylene]-3H-indene-1-acetamide], the “% inhibition ARBC” value at Cyclooxygenase [3] was 0%. The inhibition in vivo at 30 mg/kg in data set [1] was determined as 31%. Further, the “MFE % Inhibition @ Dose” value in data set [2] (50 mg/kg PO) was 53%. In addition, the concentration for half-maximal inhibition (IC50) against 5-Lipoxygenase worked out at 12900 nM.

Turning to `CONC(=O)Cc1c(C)n(C(=O)c2ccc(Cl)cc2)c2ccc(OC)cc12` [Example 4, 1-(4-Chlorobenzoyl)-N,5-dimethoxy-2-methyl-1H-indole-3-acetamide], the values for the IC50 on Cyclooxygenase [3] and at 5-Lipoxygenase were 200 nM and 24000 nM, respectively. In addition, the “RATIO, selectivity of inhibition” value in the data set on Cyclooxygenase [5] came out at 120. In data set [1], the inhibition in vivo at 10 mg/kg stood at 40%. Further, the TD50 at 6 h in data set [4] was determined as 42 mg/kg.

Turning to `COc1ccc2c(c1)c(CC(=O)N(O)C1CCCCC1)c(C)n2C(=O)c1ccc(Cl)cc1` [Example 6, 1-(4-Chlorobenzoyl)-N-cyclohexyl-N-hydroxy-5-methoxy-2-methyl-1H-indole-3-acetamide], the half-inhibitory concentration (IC50) came to 100 nM against Cyclooxygenase [3] and 1600 nM against 5-Lipoxygenase. Also, the “RATIO, selectivity of inhibition” value in the data set with Cyclooxygenase [5] came out at 16.0. Besides, in data set [1], the inhibition in vivo at 10 mg/kg was 22%. Moreover, in data set [2], the ED40 came to 4.7 mg/kg.

With `COc1ccc2c(c1)c(CC(=O)N(C)O)c(C)n2C(=O)c1ccc(Cl)cc1` [Example 3, 1-(4-Chlorobenzoyl)-N-hydroxy-5-methoxy-N,2-dimethyl-1H-indole-3-acetamide], the inhibition in vivo at 10 mg/kg in data set [1] is 29%. The “percent of rats with gastric ulcers at a given dose (UD50 column)” value with gastric ulcers in rats worked out at 10%. For the same molecule, in data set [2], the ED40 is < 2 mg/kg. In addition, it took 1400 nM to reach half-maximal inhibition against 5-Lipoxygenase (IC50).

In the case of `CC1=C(CC(=O)N(C)O)c2cc(F)ccc2/C1=C\c1ccc([S+](C)[O-])cc1` (stereo not drawn) [Example 1, (Z)-6-fluoro-N-hydroxy-N,2-dimethyl-3-[[4-(methylsulfinyl)phenyl]methylene]-3H-indene-1-acetamide], on Cyclooxygenase [3], the “% inhibition ARBC” value was found to be 0%. Further, the inhibition in vivo at 30 mg/kg in data set [1] came out at 15%. Besides, in data set [2] (10 mg/kg PO), the “MFE % Inhibition @ Dose” value was found to be 30%. For the same molecule, on 5-Lipoxygenase, the 50% inhibitory concentration (IC50) was 1000 nM.

With `COc1ccc2c(c1)c(CC(=O)O)c(C)n2C(=O)c1ccc(Cl)cc1` [Indomethacin, 1(p-chlorobenzoyl)-5-methoxy-2-methylindole-3-acetic acid, reference compound], the inhibition in vivo at 5 mg/kg in data set [1] (po, 5 h) stood at 36%. Further, the ED40 in data set [2] amounted to 0.21 mg/kg. Besides, the IC50 against 5-Lipoxygenase is > 100000 nM.
